Legend:
[1] = system: occludin and ZO-1 in confluent HDLEC and HDBEC cells; test: Immunofluorescence analysis of tight junction proteins occludin and ZO-1; assay type: cell-based, human; details: IL-1beta alone 10 ng/ml, 1 hour
Experimental: FIG. 11 reports the data of immunofluorescence analyses of occludin (upper boxes) and of the protein ZO-1 (lower boxes) in confluent HDLEC (A) and HDBEC (B) cells treated with the following stimuli: no stimulus, IL-1beta alone (10 ng/ml, 1 hour), mixture of the invention alone (10 micrograms/ml 18 hours); mixture of the invention (18 hours)+IL-1beta (1 hour). The confocal images were taken with 60× enlargement, the scale bar=10 micrometers.
Occludin and ZO-1 were assessed as markers representative of tight endothelial junctions. The confluent cells express these markers, whereas they are reduced following treatment with IL-1beta.
The proteins of occluding tight junction and zona occludens 1 (ZO-1) expressed on the cell surface were visualised using confocal analysis. The cells were plated 5×10^4 on 1 cm circular glass slides. After 24 hours the cells were washed and treated with the mentioned stimulants. The immunofluorescence analysis was carried out as reported in the materials and methods of Monti et al, Pharmacol Res 2013; 76:171-81.

[2] = system: Human Dermal Lymphatic Endothelial Cells (HDLEC); test: Vascular (endothelial) permeability test, FITC-dextran passage through lymphatic endothelial monolayer; assay type: cell-based; details: IL-1β 10 ng/ml 1 h, no extract
Experimental: In box A of FIG. 1 what is shown is the model in which lymphatic or hematic endothelial cells are measured in culture on a semi-permeable membrane, with presence of culture medium above and below said membrane, so as to allow the passage of components present in the medium when the cells are not strictly linked to one another, and FITCH-dextran molecules are inserted in the culture medium above the cells.
Quantification by means of fluorescence of the FITC-dextran complex provides a measure of the permeability of the endothelium. […]
The authors have therefore used a model, shown schematically in FIG. 1, to study the effects of various plant extracts on endothelia of blood or lymphatic vessels. […] The degree of permeability has been determined by way of experiment by measuring the amount of fluorescent probe that crosses the endothelial barrier separating the two compartments representing, respectively, the lumen of the vessel (above the semi-permeable membrane) and the interstice (below the semi-permeable membrane). […]
The samples were assessed in 2-3 concentrations vs. vehicle alone on the cell cultures, untreated and treated with IL1beta (10 ng/ml), to understand if they have any effect in themselves on undamaged cells and if the tested substances are able to reverse the rise in permeability induced by IL1beta. […]

## IL-1β: interleukin beta, inflammatory agent used to raise endothelial permeability
[1]
  tight junction markers occludin and ZO-1: reduced
[2]
  permeability of endothelial cells treated with IL-1β alone (healthy cells = 100%): approximately 160%

— patent US10314877B2, “Method for lymph drainage” (ABOCA S.P.A. SOCIETÀ AGRICOLA, priority 2015, dated 2019)
